This note sets out measurements from publication PMC7438732, “The H^+-Translocating Inorganic Pyrophosphatase From Arabidopsis thaliana Is More Sensitive to Sodium Than Its Na^+-Translocating Counterpart From Methanosarcina mazei” (Frontiers in Plant Science, 2020).

One assay has as its target T1, MVP (Methanosarcina mazei, UniProt Q8PYZ8).
T1 construct: gene hppA1; InvGFPMVP: N-terminal signal peptide of yeast Suc2p + yEGFP + MVP; stripped microsomal membranes of S. cerevisiae YPC6; homodimer
Put plainly: colorimetric orthophosphate release; fit of MWC-derived Equation […]. Format: biochemical. As to conditions: read-out: KR.

In the next assay the target is T2, AVP1 (Arabidopsis thaliana, UniProt P31414).
T2 construct: InvGFPAVP1: N-terminal signal peptide of yeast Suc2p + yEGFP + AVP1; stripped microsomal membranes of S. cerevisiae YPC6; homodimer
T2 sequence (P31414 1-770): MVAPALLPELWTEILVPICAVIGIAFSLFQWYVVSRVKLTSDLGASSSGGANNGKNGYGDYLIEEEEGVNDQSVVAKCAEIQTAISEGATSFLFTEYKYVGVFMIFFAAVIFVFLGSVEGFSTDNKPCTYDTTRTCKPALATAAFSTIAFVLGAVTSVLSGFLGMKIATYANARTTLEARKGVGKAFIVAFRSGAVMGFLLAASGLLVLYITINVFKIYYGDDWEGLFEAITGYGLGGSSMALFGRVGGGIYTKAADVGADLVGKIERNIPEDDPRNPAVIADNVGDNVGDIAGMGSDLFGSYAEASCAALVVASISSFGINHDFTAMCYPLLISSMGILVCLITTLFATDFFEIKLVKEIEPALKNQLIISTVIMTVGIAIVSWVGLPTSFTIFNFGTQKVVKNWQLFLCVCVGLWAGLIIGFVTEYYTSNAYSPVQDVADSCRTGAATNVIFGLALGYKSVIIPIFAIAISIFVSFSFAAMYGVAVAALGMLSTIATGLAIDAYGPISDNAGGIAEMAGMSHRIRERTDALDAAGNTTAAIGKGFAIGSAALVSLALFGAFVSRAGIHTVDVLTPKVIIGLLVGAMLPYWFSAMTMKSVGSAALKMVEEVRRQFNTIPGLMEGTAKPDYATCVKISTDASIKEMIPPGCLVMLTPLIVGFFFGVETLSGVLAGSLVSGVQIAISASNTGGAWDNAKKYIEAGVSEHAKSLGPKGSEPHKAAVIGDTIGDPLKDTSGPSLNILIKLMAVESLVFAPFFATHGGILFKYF
The assay is described as above. Format: biochemical. As to conditions: read-out: KR.

T1 sequence (Q8PYZ8 whole entry): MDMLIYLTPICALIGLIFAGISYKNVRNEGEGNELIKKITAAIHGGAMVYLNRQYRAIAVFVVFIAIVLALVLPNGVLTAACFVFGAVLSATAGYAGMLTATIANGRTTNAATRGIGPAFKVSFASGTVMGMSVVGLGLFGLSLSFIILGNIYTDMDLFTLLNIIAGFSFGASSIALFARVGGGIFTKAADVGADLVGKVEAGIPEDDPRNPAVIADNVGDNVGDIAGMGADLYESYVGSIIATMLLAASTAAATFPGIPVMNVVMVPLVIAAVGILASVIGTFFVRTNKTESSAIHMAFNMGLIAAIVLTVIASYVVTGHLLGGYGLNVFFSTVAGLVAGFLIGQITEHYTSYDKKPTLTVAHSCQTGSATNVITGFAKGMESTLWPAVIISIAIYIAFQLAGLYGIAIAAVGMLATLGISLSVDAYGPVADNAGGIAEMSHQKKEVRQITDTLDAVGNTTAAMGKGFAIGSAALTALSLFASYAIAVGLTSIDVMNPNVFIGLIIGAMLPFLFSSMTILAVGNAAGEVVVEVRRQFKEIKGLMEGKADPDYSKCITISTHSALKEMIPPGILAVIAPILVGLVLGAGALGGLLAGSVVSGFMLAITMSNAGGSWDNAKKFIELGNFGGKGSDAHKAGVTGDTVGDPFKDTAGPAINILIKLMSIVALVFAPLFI

On to `O=P(O)(O)OP(=O)(O)O` [Mg2PPi], for which the Kd on MVP is 62 ± 8 µM; at AVP1, 84 ± 9 µM.
